These results are taken from ChEMBL document CHEMBL4813909, “Heterocyclic Diamidine DNA Ligands as HOXA9 Transcription Factor Inhibitors: Design, Molecular Evaluation, and Cellular Consequences in a HOXA9-Dependant Leukemia Cell Model” (J Med Chem, 2019).

The test system of series [1] is HOXA9 DNA binding site. The following applies: dose 0.5-1 µM.
A short description of series [2]: Drug localization in nucleus of human HT-29 cells at 5 uM incubated for 16 hrs by DiOC6/propidium iodide staining based by fluorescence microscopy. In kind it is ADME, subcellular. The following applies: ht-29, 16 h.
For series [3], the system named is HOXA9 DNA binding site. Put plainly: Inhibition of HOXA9 (unknown origin) expressed in reticulocyte lysate system binding to 32P-radiolabeled DNA Hoxa9-binding site (strand a-CTGCGATGATTTACGACCGC /strand b-GCGGTCGTAAATCATCGCAG) (unknown origin) assessed as HOXA9/DNA inhibition at 2.5 to 20 uM incubated for 20 mins by electrophoretic mobility shift assay relative to control. In kind it is subcellular. The following applies: dose 2.5-20 µM. For orientation: Mobility shift assays separate free from complexed probe on a gel.

A short description of series [4]: Drug localization in nucleus of mouse MigA9 cells at 20 uM incubated for 2 hrs by TO-PRO-3/propidium iodide staining based by fluorescence microscopy. The following applies: miga9, 2 h. In kind it is ADME, subcellular.
A short description of series [5]: Induction of cell death in mouse MigA9 cells harboring mouse Hoxa9 gene assessed as propidium iodide-positive cells at 15 uM incubated for 24 hrs by propidium iodide staining based flow cytometry (reference value: 9.06 +/- 0.53%). In kind it is functional. A general note: A flow cytometer gives signals particle by particle.
Series [6] can be described thus: Induction of cell death in mouse MigA9 cells harboring mouse Hoxa9 gene assessed as propidium iodide-positive cells at 20 uM incubated for 24 hrs by propidium iodide staining based flow cytometry (reference value: 9.06 +/- 0.53%). In kind it is functional.
Series [7] is described as follows: Induction of cell cycle arrest in mouse MigA9 cells harboring mouse Hoxa9 gene assessed as accumulation at sub-G1 phase at 20 uM incubated for 48 hrs by propidium iodide staining based flow cytometry (reference value: 0.76 +/- 0.1%). In kind it is functional.
Series [8] is described as follows: Induction of cell death in mouse MigA9 cells harboring mouse Hoxa9 gene assessed as propidium iodide-positive cells at 5 uM incubated for 48 hrs by propidium iodide staining based flow cytometry (reference value: 8.75 +/- 0.2%). In kind it is functional.
Series [9] in a line: Induction of cell death in mouse MigA9 cells harboring mouse Hoxa9 gene assessed as propidium iodide-positive cells at 5 uM incubated for 24 hrs by propidium iodide staining based flow cytometry (reference value: 9.06 +/- 0.53%). In kind it is functional.
Series [10] in a line: Induction of cell cycle arrest in mouse MigA9 cells expressing mouse Hoxa9 assessed as accumulation at G2/M phase at 5 uM incubated for 48 hrs by EdU/propidium iodide staining based flow cytometry (reference value: 4.55 +/- 0.16%). In kind it is functional.
The subject of series [11] is HOXA9 DNA binding site. The following applies: dose 1.0 µM.
Series [12] is described as follows: Induction of cell cycle arrest in mouse MigA9 cells expressing mouse Hoxa9 assessed as accumulation at S phase at 5 uM incubated for 48 hrs by EdU/propidium iodide staining based flow cytometry (reference value: 46.68 +/- 0.21%). In kind it is functional.
Series [13] can be described thus: Induction of cell cycle arrest in mouse MigA9 cells harboring mouse Hoxa9 gene assessed as accumulation at sub-G1 phase at 5 uM incubated for 48 hrs by propidium iodide staining based flow cytometry (reference value: 0.76 +/- 0.1%). In kind it is functional.
Series [14] can be described thus: Induction of cell cycle arrest in mouse MigA9 cells expressing mouse Hoxa9 assessed as accumulation at G0/G1 phase at 5 uM incubated for 48 hrs by EdU/propidium iodide staining based flow cytometry (reference value: 48.77 +/- 0.19%). In kind it is functional.
The nature of series [15]: Cytotoxicity against mouse MigA9 cells harboring mouse Hoxa9 gene incubated for 72 hrs by MTS assay. In kind it is functional, cell-based. The conditions noted are these: MigA9, 72 h. Background: Formazan colour is commonly taken as a measure of viable cells.
The test system of series [16] is HOXA9 DNA binding site. The following applies: dose 0.5 µM.
Series [17] is described as follows: Induction of cell cycle arrest in mouse MigA9 cells expressing mouse Hoxa9 assessed as accumulation at G0/G1 phase at 0.5 uM incubated for 48 hrs by EdU/propidium iodide staining based flow cytometry (reference value: 48.77 +/- 0.19%). In kind it is functional.
The nature of series [18]: Induction of cell cycle arrest in mouse MigA9 cells expressing mouse Hoxa9 assessed as accumulation at S phase at 0.5 uM incubated for 48 hrs by EdU/propidium iodide staining based flow cytometry (reference value: 46.68 +/- 0.21%). In kind it is functional.
Series [19] can be described thus: Induction of cell death in mouse MigA9 cells harboring mouse Hoxa9 gene assessed as propidium iodide-positive cells at 0.5 uM incubated for 48 hrs by propidium iodide staining based flow cytometry (reference value: 8.75 +/- 0.2%). In kind it is functional.
Series [20] in a line: Induction of cell death in mouse MigA9 cells harboring mouse Hoxa9 gene assessed as propidium iodide-positive cells at 1 uM incubated for 48 hrs by propidium iodide staining based flow cytometry (reference value: 8.75 +/- 0.2%). In kind it is functional.
Series [21] can be described thus: Induction of cell death in mouse MigA9 cells harboring mouse Hoxa9 gene assessed as propidium iodide-positive cells at 0.5 uM incubated for 24 hrs by propidium iodide staining based flow cytometry (reference value: 9.06 +/- 0.53%). In kind it is functional.
Series [22] can be described thus: Induction of cell cycle arrest in mouse MigA9 cells harboring mouse Hoxa9 gene assessed as accumulation at sub-G1 phase at 0.5 uM incubated for 48 hrs by propidium iodide staining based flow cytometry (reference value: 0.76 +/- 0.1%). In kind it is functional.
Series [23] can be described thus: Induction of cell death in mouse MigA9 cells harboring mouse Hoxa9 gene assessed as propidium iodide-positive cells at 1 uM incubated for 24 hrs by propidium iodide staining based flow cytometry relative to control. In kind it is functional.
Series [24] in a line: Induction of cell cycle arrest in mouse MigA9 cells expressing mouse Hoxa9 assessed as accumulation at G2/M phase at 0.5 uM incubated for 48 hrs by EdU/propidium iodide staining based flow cytometry (reference value: 4.55 +/- 0.16%). In kind it is functional.

The structures appear in SMILES notation. Activity calls are given as the source filed them. No cut-off for these calls is given here.

For orientation: ΔTm means the shift of the melting midpoint relative to a reference. Consider `N=C(N)c1ccc(-c2ccc(-c3ccc4ccc(C(=N)N)cc4c3)cc2)cc1`, for which, in the series with HOXA9 DNA binding site [1], the ΔTm came to 8 °C.

As to `N=C(N)c1ccc(-c2ccc(-c3nc4cc(C(=N)N)ccc4[nH]3)o2)cc1`, the Drug transport result in series [2] is “Active”. For the same compound, the inhibition entry in the series on HOXA9 DNA binding site [3] was “inactive”.

As for `N=C(N)c1ccc(-c2cnc(-c3ccc(C(=N)N)cc3)s2)cc1`, the Drug transport result in [4] was “Active”. Moreover, in the series with HOXA9 DNA binding site [3], the inhibition result is “Active”. The Activity in series [5] (dose 15 µM, time 24 hrs) was 5.69%; in series [6] (dose 20 µM, time 24 hrs), 5.91%; in series [7] it was 1.71%.

On to `N=C(N)c1ccc(-c2ccc(-c3cc4cc(C(=N)N)ccc4[nH]3)o2)nc1`, for which the Drug transport entry in [4] was “Active”.

Regarding `Cn1c(-c2ccc(-c3ccc(C(=N)N)cc3)o2)nc2cc(C(=N)N)ccc21`, the Drug transport entry in series [4] is given as “Active”. Besides, the inhibition entry in the series with HOXA9 DNA binding site [3] was “inactive”.

As to `N=C(N)c1ccc(-c2ccc(-c3ccc(C(=N)N)cc3)o2)cc1` [FURAMIDINE], the Drug transport result in series [4] was “Active”.

Consider `COc1cc(C(=N)N)ccc1-c1ccc(-c2cc3ccc(C(=N)N)cc3[nH]2)o1`, for which the Drug transport result in [4] was “Active”.

As to `Cc1cc(C(=N)N)ccc1-c1ccc(-c2nc3ccc(C(=N)N)cc3[nH]2)o1`, the Drug transport result in series [2] is recorded as “Active”.

Take `CC(C)n1c(-c2ccc(-c3ccc(C(=N)N)cc3)s2)nc2cc(-c3ccc(C(=N)N)cc3)ccc21`: in series [4], the Drug transport entry is listed as “Active”.

For `N=C(N)c1ccc(-c2ccc(-c3cc4ccc(C(=N)N)cc4[nH]3)s2)cc1`, the Activity in series [8] stood at 77.87%; in series [9], 7.42%; in series [10], 12.93%; in series [12], 9.15%; in series [13], 33.64%; in [14], 77.92%. Also, the Drug transport result in series [4] is “Active”. The thermal shift (ΔTm) in the series on HOXA9 DNA binding site [11] was > 10 °C.

What is called IC50 is the point on the concentration scale where inhibition reaches its midpoint. The low end stands for higher potency, the high end for lower potency. For the compound `N=C(N)c1ccc(-n2ccc(-c3nc4ccc(C(=N)N)cc4[nH]3)n2)cc1`, the Activity in series [5] (miga9, at 15 µM) amounted to 8.64%; in series [6] (miga9, at 20 µM) it was 10.43%; in series [7], 0.67%. Besides, the half-inhibitory concentration (IC50) in [15] is > 50 µM.

For `N=C(N)c1ccc(-c2cnc(-c3ccc(C(=N)N)cc3)o2)cc1`, the inhibition result in the series with HOXA9 DNA binding site [3] was “inactive”.

As to `N=C(N)c1ccc(-c2cccc(-c3nc4cc(C(=N)N)ccc4[nH]3)c2)cc1`, the Drug transport entry in series [4] is recorded as “Not Active”.

On to `N=C(N)c1ccc(-c2ccc(-c3nc4ccc(C(=N)N)cc4[nH]3)o2)nc1`, for which the Drug transport entry in series [4] and in series [2] was “Active” in each case.

In the case of `Cn1c(-c2ccc(-c3ccc(C(=N)N)cc3)s2)nc2cc(C(=N)N)ccc21`, the Drug transport entry in [4] is listed as “Active”. Further, the inhibition result with HOXA9 DNA binding site [3] was “inactive”.

Consider `N=C(N)c1ccc(-c2ccc(-c3nc4ccc(C(=N)N)cc4[nH]3)o2)c(O)c1`, for which the Drug transport result in [2] was “Active”.

On to `N=C(N)c1ccc(-c2ccc(-c3cc4ccc(C(=N)N)cc4[nH]3)s2)nc1`, for which the Activity in series [8] turned out to be 39.4%; in series [9] it was 6.21%; in series [10], 9.5%; in series [12], 22.55%; in [13], 4.48%; in series [14] it was 67.95%. The ΔTm in the series on HOXA9 DNA binding site [11] is > 10 °C; in the series with HOXA9 DNA binding site [16], 7 °C.

On to `N=C(Nc1ccc(-c2ccc(-c3ccc(NC(=N)c4ccccc4)cc3)[nH]2)cc1)c1ccccc1`, for which, in series [4], the Drug transport entry was “Active”. Besides, the Activity in series [17] was 53.83%; in series [18], 38.84%; in series [19] it was 18.33%; in series [20], 99.33%; in series [21], 12.9%; in [22], 2.47%. Moreover, the Activity in [23] is given as 68.8%; in [24] it was 7.32%. Moreover, the thermal shift (ΔTm) in the series with HOXA9 DNA binding site [1] worked out at 8 °C.

For the compound `Cn1c(-c2ccc(-c3ccc(-c4nc5cc(C(=N)N)ccc5n4C)s3)cc2)nc2cc(C(=N)N)ccc21`, the Drug transport entry in [4] is recorded as “Active”. Also, the inhibition entry in the series with HOXA9 DNA binding site [3] is “inactive”.

On to `N=C(N)c1ccc2nc(-c3ccc(-c4ccc(C(=N)N)nc4)o3)[nH]c2c1`, for which the Drug transport entry in series [2] was “Active”. In addition, the inhibition result with HOXA9 DNA binding site [3] is “inactive”.

Regarding `N=C(N)c1ccc(-c2ccc(-c3cc4ccc(C(=N)N)cc4[nH]3)o2)cc1`, in series [4], the Drug transport result is recorded as “Active”. Besides, the inhibition entry with HOXA9 DNA binding site [3] was “Active”. Besides, the Activity in [5] (dose 15 µM, time 24 hrs) turned out to be 11.76%. Also, the ΔTm with HOXA9 DNA binding site [11] was > 10 °C; in the series with HOXA9 DNA binding site [16] it was 7 °C.
